We go through two compounds from PMC7026080, “Phenotypic high-throughput screening platform identifies novel chemotypes for necroptosis inhibition” (Cell Death Discovery, 2020).

Molecules are shown by their SMILES. Converted amounts (≈) assume the structure as drawn. Where two headings read alike, the source gives them in different places.

Data set [1] in a line: Human microsomal clearance (in vitro). In kind it is in vitro ADME. The note with it: microsomes, read-out: Human microsomal clearance (in vitro) rate.
The next data set is described as follows: Aqueous solubility. It counts as physicochemical. The note with it: read-out: Aqueous solubility, concentration.
The test system of data set [2] is L929 cells. Briefly: Long-term necroptosis inhibition in L929 cells + mTNF-α, 24 h, LDH release. It counts as cell-based, murine. The settings on record: Mus musculus, 10 ng/mL mTNF-α, screening step 7, read-out: EC50 L929 + TNF-α (in vitro). On the procedure: (§1) The ability of compounds to interfere with specific steps of the necroptosis pathway, as well as inherent cytotoxicity and long-term necroptosis inhibitory effects were evaluated using in vitro necroptosis models (Fig. S1). Firstly, the 110 compounds were tested for their ability to modulate TNF-α-induced MLKL phosphorylation, a key necroptotic effector downstream of RIPK3[13]. […] Membrane integrity was evaluated by both AK and LDH release to exclude potential false positives.
(§2) Whole cell extracts were analysed by immunoblotting. […] Data represent mean values ± SEM of three independent experiments normalized to untreated control. Cell viability was assessed using a colorimetric-based readout for LDH release.
(§3) Whole cell extracts were analysed by immunoblotting. Data shown are representative blots and quantification of p-MLKL/MLKL ratio from one single experiment, in fold-change from control. […] Data represent mean values ± SEM of three independent experiments normalized to untreated control. Cell viability was assessed using a colorimetric-based readout for LDH release. c In vitro screening results for seven selected compounds at different stages of the HTS cascade. TEXT PRINTED IN THE PICTURE: (C) Nec-1: EC50 [μM] L929 + TNF-α (in vitro): 1.25 (Screening Step: 1; Time Point: 8 h); EC50 [μM] L929 + TNF-α (in vitro): 1.13 (Screening Step: 7; Time Point: 24 h); EC50 [μM] […]
In general terms: LDH leaks from cells whose membrane has failed.

Data set [3] deals with L929 cells. Briefly: Cytotoxicity in L929 cells without TNF-α, 24 h, LDH release. The settings on record: Mus musculus, absence of TNF-α, toxicity, screening step 7, read-out: IC50 L929 (in vitro). In kind it is cell-based, murine. As for the experimental part: as §1, §2, §3

Broadly, the EC50 is the concentration needed to bring the measured effect to its halfway point. By IC50 is commonly meant the midpoint of a concentration-inhibition curve.

On to `CN1C(=O)C(Cc2c[nH]c3ccccc23)NC1=S` (centres unmarked) [Nec-1, necrostatin-1], for which, in data set [1], the microsomal CLint was found to be 59 µL/min/mg. In “Aqueous solubility”, the solubility worked out at 97 µM (≈ 25.2 µg/mL). The EC50 with L929 cells [2] worked out at 1.13 µM. In addition, the half-inhibitory concentration (IC50) in the data set on L929 cells [3] is > 100 µM.

In the case of `O=C(c1cnn(Cc2ccccc2)c1)N1CCOc2ccccc2C1` [SN-6109], the microsomal CLint in data set [1] was 42 µL/min/mg. The solubility in the data set “Aqueous solubility” (aqueous medium (not further specified)) was found to be 47 µM (≈ 15.7 µg/mL). In addition, the EC50 in the data set on L929 cells [2] was 11.5 µM. For the same compound, the 50% inhibitory concentration (IC50) with L929 cells [3] was > 100 µM.
